Results on 2 compounds are retold here after publication PMC8226574, “Action of Carvacrol on Parascaris sp. and Antagonistic Effect on Nicotinic Acetylcholine Receptors” (Pharmaceuticals, 2021).

The structures appear in SMILES notation. Entries after “also recorded” stand apart in the source; their conditions may differ. Read-outs that look alike come from different tables or passages of the source.

The subject of test [1] is Parascaris sp. muscle flap. In words: Parascaris sp. body muscle flap isometric contraction assay. The method, then:
For the contraction assay, adult female Parascaris sp. worms were collected weekly from the slaughterhouse at Vrčin, Belgrade, Serbia. Worms were maintained in Locke’s solution, composition (mM): NaCl 155, KCl 5, CaCl2 2, NaHCO3 1.5 and glucose 5, at a temperature of 32 °C. The Locke’s solution was changed twice daily, and each batch of worms was used within 2 days of collection. Parascaris muscle flaps for the contractions were prepared by dissecting the anterior part of the worm, 3–4 cm caudal to the head (Figure 1b). Each flap (always the same length of 1 cm) was monitored isometrically by attaching a force transducer in an experimental bath maintained at 37 °C, containing 20 mL Ascaris Perienteric Fluid Ringer/APF Ringer (mM: NaCl, 23; Na-acetate, 110; KCl, 24; CaCl2, 6; MgCl2, 5; glucose, 11; HEPES, 5; pH 7.6) and bubbled with room air. After dissection, the preparations were allowed to equilibrate for 15 min under an initial tension of 1.5 g. […] Responses for each concentration were expressed in grams of tension (g), produced by each individual flap preparation. The effect of carvacrol (300 μM) on the acetylcholine dose–response plots was determined. Contractions were monitored on a PC using a BioSmart interface and eLAB software (ElUnit, Belgrade, Serbia). The system allows real-time recording, display and analysis of experimental data. Sigmoid dose–response curves for each individual flap preparation at each concentration of the antagonist were described by the Hill equation.
(§1) The results of the contraction assay are expressed as means ± S.E. in grams (g) of tension. […] GraphPad Prism® Software (San Diego, CA, USA) was used to estimate the constants EC50 and nH by non-linear regression for each preparation. We determined the mean contraction responses to each concentration of acetylcholine. Whole cell current electrophysiology responses were analyzed using the pCLAMP 10.4 package (Molecular Devices). […] One-way analysis of variance (ANOVA) was applied for the comparison of the differences between the EC50 value and the maximal effect (Rmax). Differences were considered significant when the p value was < 0.05. The statistical analysis was conducted using GraphPad Prism® software (San Diego, CA, USA), while all values are expressed as mean ± standard error (S.E.).

Test [2] has as its target Parascaris sp. ACR-26/27 M-AChR (Parascaris equorum, UniProt A0A0U2ES47+A0A0U2ES58). Put plainly: Two-electrode voltage-clamp on Parascaris sp. ACR-26/27 M-AChR expressed in Xenopus laevis oocytes. The class given is cell-based. The method, then: (§2) Parascaris sp. ACR-26/27 M-AChR as well as Parascaris sp. and A. suum ACR-16 N-AChRs were expressed in Xenopus laevis oocytes as previously described. Briefly, Xenopus laevis defolliculated oocytes were obtained from Ecocyte Bioscience (Germany). Oocytes were micro-injected with 36 nL of cRNA mixes containing 50 ng/µL of each cRNA encoding subunits of interest and three H. contortus ancillary factors (Hco-RIC-3.1, Hco-UNC-50 and Hco-UNC-74). After 3–4 days of incubation, the oocytes were assayed under voltage clamp at −60 mV, and electrophysiological recordings were performed as described previously. The carvacrol concentration-dependent inhibition of acetylcholine current response was assessed for Parascaris- and Asu-ACR-16 channels with the protocol described by Zheng et al..
as §1
In general terms: Two-electrode voltage clamp is typically applied to oocytes expressing channels or transporters.

The target of test [3] is Parascaris sp. ACR-16 N-AChR (Parascaris equorum, UniProt A0A3S9VMQ8). Put plainly: Two-electrode voltage-clamp on Parascaris sp. ACR-16 N-AChR expressed in Xenopus oocytes. The class given is cell-based. Particulars: for reduction of ACh maximal response amplitude: p < 0.05. The protocol: as §2, §1
Sequence of Parascaris sp. ACR-16 N-AChR (A0A3S9VMQ8 entry or part of it): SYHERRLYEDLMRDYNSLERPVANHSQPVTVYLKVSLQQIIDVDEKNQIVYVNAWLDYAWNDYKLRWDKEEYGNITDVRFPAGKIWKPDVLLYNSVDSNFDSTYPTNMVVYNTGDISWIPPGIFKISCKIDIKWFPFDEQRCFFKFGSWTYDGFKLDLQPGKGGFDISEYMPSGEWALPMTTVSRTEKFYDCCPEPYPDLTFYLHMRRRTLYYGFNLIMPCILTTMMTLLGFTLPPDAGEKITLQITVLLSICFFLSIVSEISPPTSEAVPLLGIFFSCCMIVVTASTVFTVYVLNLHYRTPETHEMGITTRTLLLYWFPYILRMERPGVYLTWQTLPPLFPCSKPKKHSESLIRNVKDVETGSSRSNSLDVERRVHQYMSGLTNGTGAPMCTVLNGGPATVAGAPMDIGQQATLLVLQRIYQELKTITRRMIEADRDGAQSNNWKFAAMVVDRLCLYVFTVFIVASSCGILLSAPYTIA
Test [4] concerns the target T1, A. suum ACR-16 N-AChR (Ascaris suum, UniProt F1KYJ9).
T1 construct: expressed in transfected cells; host or cells: Xenopus laevis oocytes (cRNA micro-injection)
T1 sequence (F1KYJ9 1-504): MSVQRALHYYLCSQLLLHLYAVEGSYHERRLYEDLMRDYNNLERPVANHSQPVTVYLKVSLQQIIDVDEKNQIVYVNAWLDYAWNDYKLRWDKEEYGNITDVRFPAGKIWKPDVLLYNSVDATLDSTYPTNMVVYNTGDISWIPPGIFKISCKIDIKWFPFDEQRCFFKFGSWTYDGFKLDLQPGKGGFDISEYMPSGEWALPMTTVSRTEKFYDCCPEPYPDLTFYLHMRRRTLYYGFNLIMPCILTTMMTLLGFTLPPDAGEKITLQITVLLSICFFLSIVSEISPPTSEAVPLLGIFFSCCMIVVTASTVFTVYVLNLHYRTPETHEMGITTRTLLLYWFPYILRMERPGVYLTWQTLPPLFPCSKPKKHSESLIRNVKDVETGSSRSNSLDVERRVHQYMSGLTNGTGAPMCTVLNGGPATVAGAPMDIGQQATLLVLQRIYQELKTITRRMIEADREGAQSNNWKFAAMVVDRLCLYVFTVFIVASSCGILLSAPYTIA
Put plainly: cell-based. The protocol:
as §2, §1

The subject of test [5] is A. suum innervated muscle strips. The following applies: 300 µM of carvacrol; cited from earlier work.

Sequence of Parascaris sp. ACR-26/27 M-AChR (A0A0U2ES58 entry or part of it): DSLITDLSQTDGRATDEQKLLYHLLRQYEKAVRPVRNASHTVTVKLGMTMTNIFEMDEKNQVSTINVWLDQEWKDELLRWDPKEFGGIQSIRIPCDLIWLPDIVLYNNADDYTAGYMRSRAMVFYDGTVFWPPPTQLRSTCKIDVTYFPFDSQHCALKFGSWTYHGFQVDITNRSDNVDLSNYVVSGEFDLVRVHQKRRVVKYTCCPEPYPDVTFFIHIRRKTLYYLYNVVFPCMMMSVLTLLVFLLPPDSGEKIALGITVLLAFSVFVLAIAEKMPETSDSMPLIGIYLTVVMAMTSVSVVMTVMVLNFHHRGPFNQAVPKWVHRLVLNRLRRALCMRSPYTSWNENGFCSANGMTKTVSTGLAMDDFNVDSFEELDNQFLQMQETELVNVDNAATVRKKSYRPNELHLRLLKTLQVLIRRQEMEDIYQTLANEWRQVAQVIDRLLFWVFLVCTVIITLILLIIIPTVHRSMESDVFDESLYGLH
Sequence of Parascaris sp. ACR-26/27 M-AChR (A0A0U2ES47 entry or part of it): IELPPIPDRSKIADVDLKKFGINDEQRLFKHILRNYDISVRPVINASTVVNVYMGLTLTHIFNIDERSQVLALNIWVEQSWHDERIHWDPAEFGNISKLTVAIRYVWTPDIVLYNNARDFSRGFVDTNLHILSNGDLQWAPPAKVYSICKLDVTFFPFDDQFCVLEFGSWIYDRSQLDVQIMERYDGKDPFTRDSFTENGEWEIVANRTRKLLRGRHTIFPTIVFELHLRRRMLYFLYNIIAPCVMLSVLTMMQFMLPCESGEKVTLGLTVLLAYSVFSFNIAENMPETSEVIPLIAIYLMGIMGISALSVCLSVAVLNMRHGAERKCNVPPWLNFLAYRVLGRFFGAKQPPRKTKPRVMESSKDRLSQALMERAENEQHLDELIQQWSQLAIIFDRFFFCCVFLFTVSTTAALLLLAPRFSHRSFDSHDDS

In general, IC50 refers to the point on the concentration scale where inhibition reaches its midpoint. Regarding `Cc1ccc(C(C)C)cc1O` [carvacrol], the “inhibitory effect after removal of carvacrol from experimental baths (washing)” value in test [1] (300 µM carvacrol) is recorded as “remained even after removal”. Moreover, in test [1] (300 µM carvacrol, ACh 1 to 100 µM), the “effect on contractions induced by ACh” value is “completely abolished; also recorded: fully and irreversibly abolished; also recorded: full inhibition”. In addition, the mode of action entry in test [2], in test [3] and in test [4] was “non-competitive antagonist” throughout. For the same compound, the agonist action result in test [2] (carvacrol perfused alone) is “no agonist action”. The “effect on efficacy of ACh activation (Imax)” value in test [2] (perfusion of 100 and 300 µM carvacrol, p < 0.0001) is listed as “significantly reduced”. The IC50 was found to be 169.3 ± 1 µM in test [2] (read-out: IC50, inhibition of ACh-elicited current); 177.8 ± 1.1 µM in test [3]; 36.4 ± 1.3 µM in test [4]. The agonist effect entry in test [3] (300 µM carvacrol) is given as “no agonist effect”. The “reduction of ACh maximal response amplitude” value in test [3] (presence of 100 µM carvacrol) was determined as 2 fold; in test [3] (presence of 300 µM carvacrol), 3 fold. The “higher affinity for the A. suum N-AChR over the Parascaris sp. N-AChR” value in test [4] (from concentration-inhibition data) is listed as “approximately 5 fold”. The “inhibition of the ACh contractile effect” value in test [5] is at most 49%.

The term EC50 denotes the concentration at which the effect is half-maximal. For the compound `CC(=O)OCC[N+](C)(C)C` [ACh, Acetylcholine chloride], in test [1] (obtained with 100 µM ACh), the “maximal effect (Rmax), contraction” value is given as 1.19 ± 0.051 g. For the same compound, the EC50 in test [1] (read-out: EC50 of ACh, muscle flap contraction, control, no carvacrol, n = 5) was 6.08 µM; in test [1] (read-out: log EC50 of ACh, muscle flap contraction (converted)) it was 6.03 µM; in test [2] (ACh EC50, absence of carvacrol, normalized to 100 µM ACh, n = 6), 25 µM; in test [2] (ACh EC50, continued perfusion of 100 µM carvacrol, n = 5), 12.2 µM; in test [2] (ACh EC50, continued perfusion of 300 µM carvacrol, n = 6) it was 6.6 µM; in test [2] (ACh log EC50, absence of carvacrol, log of EC50 in µM, n = 6), 25 µM. Also, the EC50 is 12.2 µM in test [2] (ACh log EC50, continued perfusion of 100 µM carvacrol, n = 5); 6.56 µM in test [2] (ACh log EC50, continued perfusion of 300 µM carvacrol, n = 6); 5.9 µM in test [3] (ACh EC50, presence of 100 µM carvacrol, n = 6); 8.2 µM in test [3] (ACh EC50, presence of 300 µM carvacrol, n = 10); 6.5 µM in test [3] (ACh EC50, without carvacrol, n = 6); 5.92 µM in test [3] (ACh log EC50, presence of 100 µM carvacrol, n = 6). Further, in test [3] (ACh log EC50, presence of 300 µM carvacrol, n = 10), the EC50 was 8.18 µM. Moreover, the “Hill coefficient of ACh concentration-response” value is listed as 1.4 ± 0.1 in test [2] (absence of carvacrol); 1.7 ± 0.4 in test [2] (presence of 100 µM carvacrol); 1.5 ± 0.3 in test [2] (presence of 300 µM carvacrol); 2.0 ± 0.3 in test [3] (100 µM carvacrol); 2.1 ± 0.4 in test [3] (300 µM carvacrol); 2.0 ± 0.2 in test [3] (without carvacrol). Moreover, the “ACh log EC50” value in test [3] (without carvacrol, log of EC50 in µM, n = 6) is reported as 0.811 ± 0.028.
